Molecules are shown by their SMILES.

T1 sequence (Q92793 1081-1197): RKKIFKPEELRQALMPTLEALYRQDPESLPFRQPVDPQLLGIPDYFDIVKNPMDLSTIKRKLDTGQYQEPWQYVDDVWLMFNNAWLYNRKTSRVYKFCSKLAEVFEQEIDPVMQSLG

The experiment addresses T1, Recombinant human CBP containing the bromodomain (CBP-BD (1043-1159)) (Homo sapiens, UniProt Q92793).
T1 construct: Recombinant human CBP bromodomain (CBP-BD (1043-1159)); made in house; host or cells: E. coli BL21-CodonPlus (DE3), modified pET vector
Description: CBP Alphascreen binding assay. Conditions: read-out: CREBBP (CBP) IC50. The procedure, abridged:
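Buffer: 50 mM HEPES pH 7.5, 50 mM NaCl, 0.01% BSA, 0.01% Triton X-100, 2 mM DTT. The signal was normalised to plate controls and fitted with a four-parameter curve to give IC50.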
On the technique in general: Alpha assays give light when donor and acceptor beads are brought close together.
For orientation: IC50 means the concentration that gives 50% inhibition. For the compound `CCOc1cc(C(=O)O)cc(OCC)c1-n1cc(-c2cnn(CC3CC3)c2)c2ncc(-c3c(C)noc3C)cc21` [P-0264, 4-(3-(1-(cyclopropylmethyl)-1H-pyrazol-4-yl)-6-(3,5-dimethylisoxazol-4-yl)-1H-pyrrolo[3,2-b]pyridin-1-yl)-3,5-diethoxybenzoic acid], the half-inhibitory concentration (IC50) was 0.1 to 1000 nM.

Turning to `CCOc1cc(C(=O)O)cc(OCC)c1-n1cc(-c2cnn(C3CC3)c2)c2ncc(-c3c(C)noc3C)cc21` [P-0265, 4-(3-(1-cyclopropyl-1H-pyrazol-4-yl)-6-(3,5-dimethylisoxazol-4-yl)-1H-pyrrolo[3,2-b]pyridin-1-yl)-3,5-diethoxybenzoic acid], the IC50 fell in the range of 0.1 to 1000 nM.

For the compound `CCOc1cc(C(=O)O)cc(OCC)c1-n1cc(-c2cnn(CCC#N)c2)c2ncc(-c3c(C)noc3C)cc21` [P-0266, 4-(3-(1-(2-cyanoethyl)-1H-pyrazol-4-yl)-6-(3,5-dimethylisoxazol-4-yl)-1H-pyrrolo[3,2-b]pyridin-1-yl)-3,5-diethoxybenzoic acid], the concentration for half-maximal inhibition (IC50) is 0.1 to 1000 nM.

Turning to `CCOc1cc(C(=O)O)cc(OCC)c1-n1cc(-c2cnn(CC(=O)N(C)C)c2)c2ncc(-c3c(C)noc3C)cc21` [P-0267, 4-(3-(1-(2-(dimethylamino)-2-oxoethyl)-1H-pyrazol-4-yl)-6-(3,5-dimethylisoxazol-4-yl)-1H-pyrrolo[3,2-b]pyridin-1-yl)-3,5-diethoxybenzoic acid], the 50% inhibitory concentration (IC50) lay within 0.1 to 1000 nM.

`Cc1noc(C)c1-c1cnc2c(c1)c(-c1cc(C(=O)O)ccc1OC(F)(F)F)cn2-c1ccc(F)cc1F` [P-0268, 3-(1-(2,4-difluorophenyl)-5-(3,5-dimethylisoxazol-4-yl)-1H-pyrrolo[2,3-b]pyridin-3-yl)-4-(trifluoromethoxy)benzoic acid]: the concentration for half-maximal inhibition (IC50) was in the range of 0.1 to 1000 nM.

As to `Cc1noc(C)c1-c1cnc2c(-c3ccc(F)cc3F)cn(-c3c(OC(C)C)cc(C(=O)O)cc3OC(C)C)c2c1` [P-0269, 4-(3-(2,4-difluorophenyl)-6-(3,5-dimethylisoxazol-4-yl)-1H-pyrrolo[3,2-b]pyridin-1-yl)-3,5-diisopropoxybenzoic acid], the IC50 was in the range of 0.1 to 1000 nM.

`CCOc1cc(C(=O)O)cc(OCC)c1-n1cc(CC2CCC2)c2ncc(-n3c(C)nnc3C)cc21` [P-0270, 4-(3-(cyclobutylmethyl)-6-(3,5-dimethyl-4H-1,2,4-triazol-4-yl)-1H-pyrrolo[3,2-b]pyridin-1-yl)-3,5-diethoxybenzoic acid]: the half-inhibitory concentration (IC50) is 1000 to 8000 nM.

Consider `CCOc1cc(C(=O)O)cc(OCC)c1-n1cc(C2CCC(F)(F)CC2)c2ncc(-c3c(C)noc3C)cc21` [P-0271, 4-(3-(4,4-difluorocyclohexyl)-6-(3,5-dimethylisoxazol-4-yl)-1H-pyrrolo[3,2-b]pyridin-1-yl)-3,5-diethoxybenzoic acid], for which the half-maximal inhibitory concentration (IC50) fell in the range of 0.1 to 1000 nM.

For the compound `Cc1noc(C)c1-c1cnc2c(c1)c(-c1cnn(CC(=O)O)c1)cn2-c1ncccc1C#CC1CC1` [P-0272, 2-(4-(1-(3-(cyclopropylethynyl)pyridin-2-yl)-5-(3,5-dimethylisoxazol-4-yl)-1H-pyrrolo[2,3-b]pyridin-3-yl)-1H-pyrazol-1-yl)acetic acid], the IC50 is 0.1 to 1000 nM.

As for `Cc1noc(C)c1-c1cnc2c(c1)c(-c1ccc(C(=O)O)cc1OC(F)F)cn2-c1ccccc1` [P-0273, 3-(difluoromethoxy)-4-(5-(3,5-dimethylisoxazol-4-yl)-1-phenyl-1H-pyrrolo[2,3-b]pyridin-3-yl)benzoic acid], the IC50 lay within 0.1 to 1000 nM.

For `Cc1noc(C)c1-c1cnc2c(-c3ccccc3)cn(-c3cc(C(=O)O)ccc3OC(F)(F)F)c2c1` [P-0274, 3-(6-(3,5-dimethylisoxazol-4-yl)-3-phenyl-1H-pyrrolo[3,2-b]pyridin-1-yl)-4-(trifluoromethoxy)benzoic acid], the half-maximal inhibitory concentration (IC50) fell in the range of 0.1 to 1000 nM.

On to `Cc1noc(C)c1-c1cnc2c(c1)c(-c1ccc(C(=O)O)cc1OC(C)C)cn2-c1ccccc1` [P-0275, 4-(5-(3,5-dimethylisoxazol-4-yl)-1-phenyl-1H-pyrrolo[2,3-b]pyridin-3-yl)-3-isopropoxybenzoic acid], for which the IC50 was in the range of 0.1 to 1000 nM.

In the case of `Cc1noc(C)c1-c1cnc2c(c1)c(-c1ccc(C(=O)O)cc1OC1CCC1)cn2-c1ccccc1` [P-0276, 3-cyclobutoxy-4-(5-(3,5-dimethylisoxazol-4-yl)-1-phenyl-1H-pyrrolo[2,3-b]pyridin-3-yl)benzoic acid], the IC50 was in the range of 0.1 to 1000 nM.

For `Cc1noc(C)c1-c1cnc2c(c1)c(-c1ccc(C(=O)O)cc1OCC(F)F)cn2-c1ccccc1` [P-0277, 3-(2,2-difluoroethoxy)-4-(5-(3,5-dimethylisoxazol-4-yl)-1-phenyl-1H-pyrrolo[2,3-b]pyridin-3-yl)benzoic acid], the IC50 fell in the range of 0.1 to 1000 nM.

In the case of `Cc1noc(C)c1-c1cnc2c(c1)c(-c1ccc(C(=O)O)cc1OCC(F)(F)F)cn2-c1ccccc1` [P-0278, 4-(5-(3,5-dimethylisoxazol-4-yl)-1-phenyl-1H-pyrrolo[2,3-b]pyridin-3-yl)-3-(2,2,2-trifluoroethoxy)benzoic acid], the concentration for half-maximal inhibition (IC50) lay in the range of 0.1 to 1000 nM.

Take `Cc1noc(C)c1-c1cnc2c(c1)c(-c1ccc(C(=O)O)cc1OC(F)(F)F)cn2-c1ccc(F)cc1` [P-0279, 4-(5-(3,5-dimethylisoxazol-4-yl)-1-(4-fluorophenyl)-1H-pyrrolo[2,3-b]pyridin-3-yl)-3-(trifluoromethoxy)benzoic acid]: the IC50 fell in the range of 0.1 to 1000 nM.

As for `Cc1noc(C)c1-c1cnc2c(c1)c(-c1cnn(CC(=O)O)c1)cn2C(C1CC1)C1CC1` [P-0280, 2-(4-(1-(dicyclopropylmethyl)-5-(3,5-dimethylisoxazol-4-yl)-1H-pyrrolo[2,3-b]pyridin-3-yl)-1H-pyrazol-1-yl)acetic acid], the half-inhibitory concentration (IC50) was 0.1 to 1000 nM.

`Cc1noc(C)c1-c1cnc2c(c1)c(-c1ccc(C(=O)O)cc1OC(F)(F)F)cn2-c1cnc(N2CCC2)nc1` [P-0281, 4-(1-(2-(azetidin-1-yl)pyrimidin-5-yl)-5-(3,5-dimethylisoxazol-4-yl)-1H-pyrrolo[2,3-b]pyridin-3-yl)-3-(trifluoromethoxy)benzoic acid]: the half-inhibitory concentration (IC50) is 0.1 to 1000 nM.

`Cc1noc(C)c1-c1cnc2c(c1)c(-c1ccc(C(=O)O)cc1OC(F)(F)F)cn2-c1ccc(S(C)(=O)=O)cc1` [P-0282, 4-(5-(3,5-dimethylisoxazol-4-yl)-1-(4-(methylsulfonyl)phenyl)-1H-pyrrolo[2,3-b]pyridin-3-yl)-3-(trifluoromethoxy)benzoic acid]: the IC50 was 0.1 to 1000 nM.

As to `Cc1noc(C)c1-c1cnc2c(c1)c(-c1c(Cl)cc(C(=O)O)cc1OC(C)C)cn2C(C1CC1)C1CC1` [P-0283, 3-chloro-4-(1-(dicyclopropylmethyl)-5-(3,5-dimethylisoxazol-4-yl)-1H-pyrrolo[2,3-b]pyridin-3-yl)-5-isopropoxybenzoic acid], the IC50 lay in the range of 0.1 to 1000 nM.

For `Cc1noc(C)c1-c1cnc2c(c1)c(-c1cc(C(=O)O)ccc1OC(F)(F)F)cn2C(C1CC1)C1CC1` [P-0284, 3-(1-(dicyclopropylmethyl)-5-(3,5-dimethylisoxazol-4-yl)-1H-pyrrolo[2,3-b]pyridin-3-yl)-4-(trifluoromethoxy)benzoic acid], the IC50 was 0.1 to 1000 nM.

`Cc1noc(C)c1-c1cnc2c(c1)c(-c1ccc(C(=O)O)cc1OC(F)(F)F)cn2[C@H]1CCOC1` [P-0285, (S)-4-(5-(3,5-dimethylisoxazol-4-yl)-1-(tetrahydrofuran-3-yl)-1H-pyrrolo[2,3-b]pyridin-3-yl)-3-(trifluoromethoxy)benzoic acid]: the concentration for half-maximal inhibition (IC50) lay in the range of 0.1 to 1000 nM.

For `Cc1noc(C)c1-c1cnc2c(c1)c(-c1ccc(C(=O)O)cc1OC(F)(F)F)cn2[C@@H]1CCOC1` [P-0286, (R)-4-(5-(3,5-dimethylisoxazol-4-yl)-1-(tetrahydrofuran-3-yl)-1H-pyrrolo[2,3-b]pyridin-3-yl)-3-(trifluoromethoxy)benzoic acid], the IC50 was in the range of 0.1 to 1000 nM.

`CCn1cc(-n2cc(-c3ccc(C(=O)O)cc3OC(F)(F)F)c3cc(-c4c(C)noc4C)cnc32)c(C)n1` [P-0287, 4-(5-(3,5-dimethylisoxazol-4-yl)-1-(1-ethyl-3-methyl-1H-pyrazol-4-yl)-1H-pyrrolo[2,3-b]pyridin-3-yl)-3-(trifluoromethoxy)benzoic acid]: the half-maximal inhibitory concentration (IC50) fell in the range of 0.1 to 1000 nM.

In the case of `Cc1nn(C(F)F)cc1-n1cc(-c2ccc(C(=O)O)cc2OC(F)(F)F)c2cc(-c3c(C)noc3C)cnc21` [P-0288, 4-(1-(1-(difluoromethyl)-3-methyl-1H-pyrazol-4-yl)-5-(3,5-dimethylisoxazol-4-yl)-1H-pyrrolo[2,3-b]pyridin-3-yl)-3-(trifluoromethoxy)benzoic acid], the 50% inhibitory concentration (IC50) was 0.1 to 1000 nM.

On to `Cc1noc(C)c1-c1cnc2c(c1)c(-c1ccc(C(=O)O)cc1OC(F)(F)F)cn2-c1cnn(C(F)F)c1C` [P-0289, 4-(1-(1-(difluoromethyl)-5-methyl-1H-pyrazol-4-yl)-5-(3,5-dimethylisoxazol-4-yl)-1H-pyrrolo[2,3-b]pyridin-3-yl)-3-(trifluoromethoxy)benzoic acid], for which the IC50 lay in the range of 0.1 to 1000 nM.

For the compound `Cc1noc(C)c1-c1cnc2c(c1)c(-c1ccc(C(=O)O)cc1OC(F)(F)F)cn2C1CCNCC1` [P-0290, 4-(5-(3,5-dimethylisoxazol-4-yl)-1-(piperidin-4-yl)-1H-pyrrolo[2,3-b]pyridin-3-yl)-3-(trifluoromethoxy)benzoic acid], the IC50 was 0.1 to 1000 nM.

`CC(=O)N1CCC(n2cc(-c3ccc(C(=O)O)cc3OC(F)(F)F)c3cc(-c4c(C)noc4C)cnc32)CC1` [P-0291, 4-(1-(1-acetylpiperidin-4-yl)-5-(3,5-dimethylisoxazol-4-yl)-1H-pyrrolo[2,3-b]pyridin-3-yl)-3-(trifluoromethoxy)benzoic acid]: the IC50 was 0.1 to 1000 nM.

As for `Cc1noc(C)c1-c1cnc2c(c1)c(-c1ccc(C(=O)O)cc1OC(F)(F)F)cn2C1CCN(S(C)(=O)=O)CC1` [P-0292, 4-(5-(3,5-dimethylisoxazol-4-yl)-1-(1-(methylsulfonyl)piperidin-4-yl)-1H-pyrrolo[2,3-b]pyridin-3-yl)-3-(trifluoromethoxy)benzoic acid], the half-maximal inhibitory concentration (IC50) was in the range of 0.1 to 1000 nM.

The record behind these values is patent US11446287B2, “Compounds and methods for EP300 or CBP modulation and indications therefor” (Opna Immuno-Oncology SA, priority 2019, dated 2022).
